Measurements: patent US20230407243A1, “GENETIC PLATFORM TO INVESTIGATE THE FUNCTIONS OF BACTERIAL DRUG EFFLUX PUMPS” (priority 2022, published 2023)
Read-outs that look alike come from different tables or passages of the source.

How the values were obtained:
Format in all cases: cell-based, Escherichia coli
EKO-35-Pore = assay: MIC susceptibility profiling, porinated strain; conditions: for MIC: Escherichia coli, technical duplicate
Summary of the method: (§1)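 Strains carry the fhuA ΔC/Δ4L pore integrated between glmS and pstS under a constitutive promoter, with pore activity checked by vancomycin susceptibility. Overnight LB cultures were adjusted in PBS pH 7.4 to OD600 ~1.0 and diluted 1/2000 into MHB II. 2-fold compound titrations were read by OD600 after 18 h at 37 °C.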

E. coli ΔtolC = assay: microbe, parasite or virus in culture
Summary of the method: (§2)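 Each compound was serially diluted twofold, in duplicate, and challenged with a 1/2000 dilution of PBS-washed cells (OD600 ~1.0) in MHB II. Plates were shaken at 37 °C for 18 h and OD600 was read at room temperature, with the baseline subtracted.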

E. coli EKO-35 = assay: microbe, parasite or virus in culture; conditions: for MIC: Escherichia coli, EKO35, technical duplicate
Summary of the method: as §2

[1] = system: wild-type E. coli K-12 str. BW25113; assay: microbe, parasite or virus in culture; conditions: Escherichia coli, BW25113, technical duplicate
Summary of the method: as §2

ΔtolC-Pore = assay: microbe, parasite or virus in culture
Summary of the method: as §1

wild-type (WT) K-12-Pore = assay: microbe, parasite or virus in culture; conditions: Escherichia coli, technical duplicate
Summary of the method: as §1

EKO-35 araC::acrBD408A = assay: MIC susceptibility profiling, efflux platform
Summary of the method: as §2

EKO-35 araC::mdtBC = assay: MIC susceptibility profiling, efflux platform
Summary of the method: as §2

EKO-35 araC::acrEF = assay: MIC susceptibility profiling, efflux platform
Summary of the method: as §2

EKO-35 araC::macAB Pore = assay: MIC susceptibility profiling, porinated efflux platform
Summary of the method: as §1

EKO-35 araC::acrB Pore = assay: as above
Summary of the method: as §1

EKO-35 araC::mdtBC Pore = assay: as above
Summary of the method: as §1

EKO-35 araC::emrKY Pore = assay: as above
Summary of the method: as §1

EKO-35 araC::acrD Pore = assay: as above
Summary of the method: as §1

EKO-35 araC::acrEF Pore = assay: as above
Summary of the method: as §1

EKO-35 araC::mexCD Pore = assay: as above
Summary of the method: as §1

EKO-35 araC::emrAB Pore = assay: as above
Summary of the method: as §1

EKO-35 araC::mdtEF Pore = assay: as above
Summary of the method: as §1

[2] = system: EKO-35 araC::acrBD408A Pore; assay: as above
Summary of the method: as §1

[H]/N=C(/N)N[C@H]1[C@H](O)[C@@H](O)[C@H](O[C@@H]2O[C@@H](C)[C@](O)(C=O)[C@H]2O[C@@H]2O[C@@H](CO)[C@H](O)[C@@H](O)[C@@H]2NC)[C@@H](N/C(N)=N\[H])[C@@H]1O [Streptomycin]
Fold changes of MICs (EKO-35-Pore; EKO-35-Pore compared to EKO-35-Pore (reference)): 1 fold
MIC (EKO-35-Pore; Table 10, with pore, read-out: Minimum inhibitory concentration (MIC), Pore EKO-35): 3.12 µg/mL
MIC (EKO-35-Pore; Table 14A, porinated, read-out: Minimum inhibitory concentration, EKO-35-Pore): 3.12 µg/mL
MIC (E. coli ΔtolC; Escherichia coli, 18 h, read-out: Minimum Inhibitory Concentration, ΔtolC): 3.12 µg/mL
Minimum inhibitory concentration (MIC), ΔtolC (E. coli ΔtolC; Table 10, without pore, technical duplicate): 3.125 µg/mL
Fold change of MICs (E. coli EKO-35; EKO-35 compared to EKO-35 (reference)): 1 fold
MIC (E. coli EKO-35; Table 10, without pore, read-out: Minimum inhibitory concentration (MIC), EKO-35): 3.12 µg/mL
MIC (E. coli EKO-35; Table 13A, non-porinated, read-out: Minimum Inhibitory Concentration, EKO-35): 3.12 µg/mL
MIC ([1]; Table 10, without pore, read-out: Minimum inhibitory concentration (MIC), K-12): 6.25 µg/mL
MIC ([1]; Table 13A, non-porinated, read-out: Minimum Inhibitory Concentration, K-12): 6.25 µg/mL
MIC (ΔtolC-Pore; Escherichia coli, 18 h, read-out: Minimum inhibitory concentration, ΔtolC-Pore): 1.56 µg/mL
Minimum inhibitory concentration (MIC), Pore ΔtolC (ΔtolC-Pore; Table 10, with pore, technical duplicate): 1.563 µg/mL
MIC (wild-type (WT) K-12-Pore; Table 10, with pore, read-out: Minimum inhibitory concentration (MIC), Pore K-12): 12.5 µg/mL
MIC (wild-type (WT) K-12-Pore; Table 14A, porinated, read-out: Minimum inhibitory concentration, K-12 (WT)-Pore): 12.5 µg/mL
Fold change of MICs (EKO-35 araC::acrBD408A; EKO-35 araC::acrBD408A compared to EKO-35): 1 fold
MIC (EKO-35 araC::acrBD408A; Escherichia coli, Table 13B, non-porinated, technical duplicate, read-out: Minimum Inhibitory Concentration, EKO-35 araC::acrBD408A): 3.12 µg/mL
Fold change of MICs (EKO-35 araC::mdtBC; EKO-35 araC::mdtBC compared to EKO-35): 2 fold
MIC (EKO-35 araC::mdtBC; Escherichia coli, Table 13B, non-porinated, technical duplicate, read-out: Minimum Inhibitory Concentration, EKO-35 araC::mdtBC): 6.25 µg/mL
Fold change of MICs (EKO-35 araC::acrEF; EKO-35 araC::acrEF compared to EKO-35): 1 fold
MIC (EKO-35 araC::acrEF; Escherichia coli, Table 13A, non-porinated, technical duplicate, read-out: Minimum Inhibitory Concentration, EKO-35 araC::acrEF): 3.12 µg/mL
Fold changes of MICs (EKO-35 araC::macAB Pore; EKO-35 araC::macAB Pore compared to EKO-35-Pore): 1 fold
MIC (EKO-35 araC::macAB Pore; Escherichia coli, EKO-35 araC::macAB Pore, technical duplicate, read-out: Minimum inhibitory concentration): 3.12 µg/mL
Fold changes of MICs (EKO-35 araC::acrB Pore; EKO-35 araC::acr-B Pore compared to EKO-35-Pore): 2 fold
MIC (EKO-35 araC::acrB Pore; Escherichia coli, Table 14A, porinated, technical duplicate, read-out: Minimum inhibitory concentration, EKO-35 araC::acrB Pore): 6.25 µg/mL
Fold changes of MICs (EKO-35 araC::mdtBC Pore; EKO-35 araC::mdtBC Pore compared to EKO-35-Pore): 1 fold
MIC (EKO-35 araC::mdtBC Pore; Escherichia coli, EKO-35 araC::mdtBC Pore, technical duplicate, read-out: Minimum inhibitory concentration): 3.12 µg/mL
Fold changes of MICs (EKO-35 araC::emrKY Pore; EKO-35 araC::emrKY Pore compared to EKO-35-Pore): 1 fold
MIC (EKO-35 araC::emrKY Pore; Escherichia coli, EKO-35 araC::emrKY Pore, technical duplicate, read-out: Minimum inhibitory concentration): 3.12 µg/mL
Fold changes of MICs (EKO-35 araC::acrD Pore; EKO-35 araC::acrD Pore compared to EKO-35-Pore): 1 fold
MIC (EKO-35 araC::acrD Pore; Escherichia coli, Table 14A, porinated, technical duplicate, read-out: Minimum inhibitory concentration, EKO-35 araC::acrD Pore): 3.12 µg/mL
Fold changes of MICs (EKO-35 araC::acrEF Pore; EKO-35 araC::acrEF Pore compared to EKO-35-Pore): 1 fold
MIC (EKO-35 araC::acrEF Pore; Escherichia coli, Table 14A, porinated, technical duplicate, read-out: Minimum inhibitory concentration, EKO-35 araC::acrEF Pore): 3.12 µg/mL
Fold changes of MICs (EKO-35 araC::mexCD Pore; EKO-35 araC::mexCD Pore compared to EKO-35-Pore): 1 fold
MIC (EKO-35 araC::mexCD Pore; Escherichia coli, EKO-35 araC::mexCD Pore, technical duplicate, read-out: Minimum inhibitory concentration): 3.12 µg/mL
Fold changes of MICs (EKO-35 araC::emrAB Pore; EKO-35 araC::emrAB Pore compared to EKO-35-Pore): 1 fold
MIC (EKO-35 araC::emrAB Pore; Escherichia coli, EKO-35 araC::emrAB Pore, technical duplicate, read-out: Minimum inhibitory concentration): 3.12 µg/mL
Fold changes of MICs (EKO-35 araC::mdtEF Pore; EKO-35 araC::mdtEF Pore compared to EKO-35-Pore): 1 fold
MIC (EKO-35 araC::mdtEF Pore; Escherichia coli, Table 14A, porinated, technical duplicate, read-out: Minimum inhibitory concentration, EKO-35 araC::mdtEF Pore): 3.12 µg/mL
Fold changes of MICs ([2]; EKO-35 araC::acrBD408A Pore compared to EKO-35-Pore): 1 fold
MIC ([2]; Escherichia coli, EKO-35 araC::acrBD408A Pore, technical duplicate, read-out: Minimum inhibitory concentration): 1.56 µg/mL
